Source: patent US20200017495A1, “NOVEL HETEROCYCLIC COMPOUNDS AND THEIR USE IN PREVENTING OR TREATING BACTERIAL INFECTIONS” (priority 2017, published 2020)

Test system: Escherichia coli (ECO) isolates
Experiment: MIC of compounds alone and combined with antibacterials, broth microdilution (CLSI)
Type: cell-based
In short: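 Log-phase isolates were inoculated at a final 5.10^5 CFU/mL in cation-adjusted Mueller-Hinton broth and incubated 16-20 h at 35° C in ambient air. MIC was the lowest concentration preventing visible growth; for combinations, the antibacterial MIC was read at each compound concentration.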

For `C=CC1=C(C(=O)O)N2C(=O)[C@@H](NC(=O)/C(=N\OCC(=O)O)c3csc(N)n3)[C@H]2SC1` [FIX, Cefixime], the MIC (strain ECO 190317, compound alone) was >128 µg/mL, the MIC (strain ECO 190317, genotype TEM-1, SHV-12, CTX-M-15, OXA-1) was >128 µg/mL and the MIC (strain ECO 190457, compound alone) was 128 µg/mL. It also gave an MIC (strain ECO 190457, genotype CTX-M-15, OXA-1) of 128 µg/mL, an MIC (strain ECO 190549, genotype CTX-M-1) of 16 µg/mL and an MIC (strain ECO 200159, genotype TEM-1, CTX-M-14) of 8 µg/mL. The MIC (strain ECO 200259, genotype CTX-M-14) was 8 µg/mL, the MIC (strain ECO 200344, genotype CTX-M-1) was 32 µg/mL and the MIC (strain ECO 260096, genotype CTX-M-132) was >128 µg/mL. The MIC (strain ECO 260304, genotype CTX-M-15) was 32 µg/mL, the MIC (strain ECO 260508, genotype TEM-1, CTX-M-15, OXA-1) was >128 µg/mL and the MIC (strain ECO RGN238, genotype OXA-1) was “<=0.25 μg/mL”. For the same compound, the MIC (strain ECO UFR15, genotype TEM-1, OXA-48) was 1 µg/mL, the MIC (strain ECO UFR16, compound alone) was >128 µg/mL and the MIC (strain ECO UFR16, genotype TEM-1, CTX-M-15, OXA-1, OXA-48) was >128 µg/mL. For the same compound, the MIC (strain ECO UFR17, genotype TEM-1, CTX-M-15, CMY-2, OXA-1, OXA-181) was >128 µg/mL, the MIC (strain ECO UFR18, genotype CTX-M-15, OXA-204) was >128 µg/mL and the MIC (strain ECO UFR19, genotype CTX-M-15, CMY-2, OXA-1, OXA-204) was >128 µg/mL. It also gave an MIC (strain ECO UFR20, compound alone) of 512 µg/mL, an MIC (strain ECO UFR20, genotype SHV-1, CTX-M-15, OXA-1, OXA-232) of 512 µg/mL and an MIC (strain ECO UFR32, genotype TEM-1, VEB-1, OXA-10) of 128 µg/mL. For the same compound, the MIC (strain ECO UFR39, genotype CTX-M-15, NDM-1) was >128 µg/mL, the MIC (strain ECO UFR41, genotype TEM-1, CTX-M-15, CMY-2, OXA-1, NDM-4) was >128 µg/mL and the MIC (strain ECO UFR45, genotype TEM-1, CMY-4, OXA-1, OXA-48, VIM-1) was >128 µg/mL. For the same compound, the MIC (strain ECO UFR52, genotype TEM-1, SHV-12, IMP-8) was >128 µg/mL, the MIC (strain ECO UFR61O, compound alone) was 32 µg/mL and the MIC (strain ECO UFR61O, genotype TEM-1, KPC-2) was 32 µg/mL. The MIC (strain ECO UFR62, genotype TEM-1, CTX-M-9, KPC-2) was 128 µg/mL, the MIC (strain ECO UFR74, genotype SHV-1, DHA-1) was >128 µg/mL and the MIC (strain ECO UFR86, genotype ompC-, ompF-) was 2 µg/mL. It also gave an MIC (strain ECO UFR174, genotype TEM-1, KPC-2, OXA-1) of 8 µg/mL, an MIC (strain ECO UFR175, genotype TEM-1, KPC-2, OXA-9) of 64 µg/mL and an MIC (strain ECO UFR176, genotype KPC-3, OXA-9*) of 64 µg/mL. For the same compound, the MIC (strain ECO UFR177, genotype TEM-1, CTX-M-15, OXA-1, OXA-2, NDM-1, RmtC, antibiotic alone) was >128 µg/mL, the “MIC ATB in combination” value (strain ECO UFR177, with AF2 @ 8 μg/mL) was “<=0.25 μg/mL” and the “MIC ATB in combination” value (strain ECO UFR177, with AF3 @ 8 μg/mL) was <0.25 µg/mL. For the same compound, the “MIC ATB in combination” value (strain ECO UFR177, with CLA @ 4 μg/mL) was >128 µg/mL, the MIC (strain ECO UFR178, genotype TEM-1, CTX-M-15, OXA-9, NDM-1, antibiotic alone) was >128 µg/mL and the “MIC ATB in combination” value (strain ECO UFR178, with AF2 @ 8 μg/mL) was <0.25 µg/mL. The “MIC ATB in combination” value (strain ECO UFR178, with AF3 @ 8 μg/mL) was <0.25 µg/mL, the “MIC ATB in combination” value (strain ECO UFR178, with CLA @ 4 μg/mL) was >128 µg/mL and the MIC (strain ECO UFR179, genotype TEM-1, SHV-12, CTX-M-15, NDM-1, antibiotic alone) was >128 µg/mL. For the same compound, the “MIC ATB in combination” value (strain ECO UFR179, with AF2 @ 8 μg/mL) was <0.25 µg/mL, the “MIC ATB in combination” value (strain ECO UFR179, with AF3 @ 8 μg/mL) was <0.25 µg/mL and the “MIC ATB in combination” value (strain ECO UFR179, with CLA @ 4 μg/mL) was >128 µg/mL. For the same compound, the MIC (strain ECO UFR180, genotype TEM-1, CMY-30, OXA-1, NDM-1, antibiotic alone) was >128 µg/mL, the “MIC ATB in combination” value (strain ECO UFR180, with AF2 @ 8 μg/mL) was <0.25 µg/mL and the “MIC ATB in combination” value (strain ECO UFR180, with AF3 @ 8 μg/mL) was <0.25 µg/mL. The “MIC ATB in combination” value (strain ECO UFR180, with CLA @ 4 μg/mL) was >128 µg/mL, the MIC (strain ECO UFR181, genotype TEM-1, CTX-M-15, NDM-5, antibiotic alone) was >128 µg/mL and the “MIC ATB in combination” value (strain ECO UFR181, with AF2 @ 8 μg/mL) was “<=0.25 μg/mL”. The “MIC ATB in combination” value (strain ECO UFR181, with AF3 @ 8 μg/mL) was >128 µg/mL, the “MIC ATB in combination” value (strain ECO UFR181, with CLA @ 4 μg/mL) was >128 µg/mL and the MIC (strain ECO UFR182, genotype CTX-M-15, OXA-1, NDM-6, antibiotic alone) was >128 µg/mL. The “MIC ATB in combination” value (strain ECO UFR182, with AF2 @ 8 μg/mL) was <0.25 µg/mL, the “MIC ATB in combination” value (strain ECO UFR182, with AF3 @ 8 μg/mL) was <0.25 µg/mL and the “MIC ATB in combination” value (strain ECO UFR182, with CLA @ 4 μg/mL) was >128 µg/mL. The MIC (strain ECO UFR183, genotype CTX-M-15, OXA-1, NDM-7, antibiotic alone) was >128 µg/mL, the “MIC ATB in combination” value (strain ECO UFR183, with AF2 @ 8 μg/mL) was >128 µg/mL and the “MIC ATB in combination” value (strain ECO UFR183, with AF3 @ 8 μg/mL) was >128 µg/mL. The “MIC ATB in combination” value (strain ECO UFR183, with CLA @ 4 μg/mL) was >128 µg/mL.
